Data on 6 molecules can be found in ChEMBL document CHEMBL4715878 (J Med Chem, 2020).

The nature of series [1]: in vitro. The settings on record: CD-1, mouse, liver microsomes.
Description: Metabolic stability in CD-1 mouse liver microsomes assessed as parent compound remaining at 100 uM measured after 60 mins by LC-MS/MS analysis
Series [2] is described as follows: in vitro. The settings on record: CD-1, mouse, liver microsomes. This is another data set of the same source. On the technique in general: Microsomes from liver hold many membrane-bound enzymes, among them those of drug oxidation.
Description: Metabolic stability in CD-1 mouse liver microsomes assessed as parent compound remaining at 100 uM measured after 60 mins in presence of NADPH by LC-MS/MS analysis
Series [3] in a line: in vitro. As to conditions: CD-1, mouse, liver microsomes. The source holds these as a separate data set.
Series [4] in a line: in vitro. As to conditions: CD-1, mouse, microsomes.
Series [5] can be described thus: in vitro. The settings on record: CD-1, mouse, liver microsomes. The source holds these as a separate data set.
The subject of another series is MDA-MB-231. As to the kind of experiment: Antiproliferative activity against human MDA-MB-231 cells assessed as reduction in cell viability incubated for 72 hrs by WST8 assay. The format is functional, cell-based. As to conditions: MDA-MB-231, 72 h. (Formazan colour is commonly taken as a measure of viable cells.)
For series [6], the system named is MCF7. As to the kind of experiment: Antiproliferative activity against human MCF7 cells assessed as reduction in cell viability incubated for 72 hrs by WST8 assay. The format is functional, cell-based. The settings on record: MCF7, 72 h.
For series [7], the target named is Platelet-derived growth factor receptor alpha (Homo sapiens, UniProt P16234). Kind of series: Effect on human recombinant N-terminal GST-tagged PDGFRalpha (550 to end residues) expressed in baculovirus infected Sf9 insect cells in presence of substrate and [gamma-32ATP] at 10 uM incubated for 30 mins by scintillation counting based radiometry assay relative to control. The settings on record: 0.5 h, read-out: Activity.

Series [8] deals with Receptor tyrosine-protein kinase erbB-4 (Homo sapiens, UniProt Q15303). Kind of series: Effect on human recombinant N-terminal GST-tagged HER4 (682 to 993) expressed in baculovirus infected Sf9 insect cells in presence of substrate and [gamma-32ATP] at 10 uM incubated for 30 mins by scintillation counting based radiometry assay relative to control. The settings on record: 0.5 h, read-out: Activity.

A further series has as its system BT-474. Kind of series: Antiproliferative activity against human BT474 cells assessed as reduction in cell viability incubated for 72 hrs by WST8 assay. The format is functional, cell-based. The settings on record: BT-474, 72 h.
In another series the test system is AU565. Kind of series: Antiproliferative activity against human AU565 cells assessed as reduction in cell viability incubated for 72 hrs by WST8 assay. The settings on record: AU565, 72 h. The format is functional, cell-based.
Series [9] deals with T1, Receptor tyrosine-protein kinase erbB-2 (Homo sapiens, UniProt P04626). The settings on record: Sf9, human, 0.5 h.
Series [10] deals with Epidermal growth factor receptor (Homo sapiens, UniProt P00533). As to conditions: 0.5 h.
Description: Effect on human EGFR in presence of substrate and [gamma-32ATP] at 10 uM incubated for 30 mins by scintillation counting based radiometry assay relative to control
Series [11] concerns the target T1, Receptor tyrosine-protein kinase erbB-2. As to the kind of experiment: Inhibition of wild-type HER2 (unknown origin) at 0.5 nM in presence of substrate incubated for 30 mins by ADP-Glo assay relative to control.
Series [12] has the same target. Kind of series: Inhibition of HER2 (unknown origin) in presence of substrate incubated for 30 mins by ADP-Glo assay.
The nature of series [13]: Antiproliferative activity against human BC assessed as lethality at 10 uM after 48 hrs by SRB assay relative to control. Type of series: functional. (The SRB assay estimates cell density from bound dye.)
Series [14] can be described thus: Antiproliferative activity against human BC assessed as cell growth inhibition at 10 uM after 48 hrs by SRB assay relative to control. The settings on record: read-out: GI. The format is functional.
Series [15] can be described thus: Antiproliferative activity against human MDA-MB-231 cells assessed as lethality at 10 uM after 48 hrs by SRB assay relative to control. Type of series: functional, MDA-MB-23.
The test system of series [16] is MCF7. As to the kind of experiment: Antiproliferative activity against human MCF7 cells assessed as lethality at 10 uM after 48 hrs by SRB assay relative to control. The format is functional.
Series [17] relates to MDA-MB-468. Kind of series: Antiproliferative activity against human MDA-MB-468 cells assessed as lethality at 10 uM after 48 hrs by SRB assay relative to control. Type of series: functional.
The subject of series [18] is MDA-MB-468. Kind of series: Antiproliferative activity against human MDA-MB-468 cells assessed as cell growth inhibition at 10 uM after 48 hrs by SRB assay relative to control. The format is functional. As to conditions: read-out: GI.
Series [19] has as its system Panel NCI-60 (60 carcinoma cell lines). As to the kind of experiment: Antiproliferative activity against human NCI60 cells assessed as lethality at 10 uM after 48 hrs by SRB assay relative to control. Type of series: functional.
The test system is the same in series [20]. Kind of series: Antiproliferative activity against human NCI60 cells assessed as mean cell growth at 10 uM after 48 hrs by SRB assay relative to control. The format is functional.
Series [21] deals with MCF7. Kind of series: Potency index, ratio of lapatinib IC50 to test compound IC50 for antiproliferative activity against human MCF7 cells. Type of series: functional.

The structures appear in SMILES notation. Bounds are passed on as bounds.

Platelet-derived growth factor receptor alpha, sequence (P16234 whole entry): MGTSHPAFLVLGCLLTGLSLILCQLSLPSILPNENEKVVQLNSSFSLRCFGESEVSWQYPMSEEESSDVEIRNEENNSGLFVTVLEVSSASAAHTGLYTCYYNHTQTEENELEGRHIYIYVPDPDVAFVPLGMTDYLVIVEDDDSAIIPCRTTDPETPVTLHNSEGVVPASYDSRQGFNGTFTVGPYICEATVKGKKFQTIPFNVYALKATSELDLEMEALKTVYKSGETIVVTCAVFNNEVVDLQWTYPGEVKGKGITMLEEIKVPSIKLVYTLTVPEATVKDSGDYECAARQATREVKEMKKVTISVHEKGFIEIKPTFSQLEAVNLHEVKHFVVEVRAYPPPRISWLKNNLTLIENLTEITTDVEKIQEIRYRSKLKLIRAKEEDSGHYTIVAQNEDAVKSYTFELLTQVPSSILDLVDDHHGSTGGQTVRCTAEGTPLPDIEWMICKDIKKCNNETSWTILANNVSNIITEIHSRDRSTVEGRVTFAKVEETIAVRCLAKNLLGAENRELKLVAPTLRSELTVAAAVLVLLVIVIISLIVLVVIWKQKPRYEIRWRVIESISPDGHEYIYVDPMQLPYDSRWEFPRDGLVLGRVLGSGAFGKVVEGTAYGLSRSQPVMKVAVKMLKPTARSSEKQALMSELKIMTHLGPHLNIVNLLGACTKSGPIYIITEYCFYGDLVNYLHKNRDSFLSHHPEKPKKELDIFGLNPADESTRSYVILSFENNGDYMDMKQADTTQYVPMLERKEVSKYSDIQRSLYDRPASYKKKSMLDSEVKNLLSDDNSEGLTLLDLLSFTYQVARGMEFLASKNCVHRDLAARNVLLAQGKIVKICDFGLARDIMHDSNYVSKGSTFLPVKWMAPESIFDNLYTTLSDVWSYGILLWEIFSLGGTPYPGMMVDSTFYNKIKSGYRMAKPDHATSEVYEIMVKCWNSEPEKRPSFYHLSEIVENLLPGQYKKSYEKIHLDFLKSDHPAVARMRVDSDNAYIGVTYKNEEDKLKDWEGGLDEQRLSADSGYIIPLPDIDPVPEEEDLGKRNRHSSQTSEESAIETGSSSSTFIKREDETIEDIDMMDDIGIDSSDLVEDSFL
Receptor tyrosine-protein kinase erbB-4, sequence (Q15303 whole entry): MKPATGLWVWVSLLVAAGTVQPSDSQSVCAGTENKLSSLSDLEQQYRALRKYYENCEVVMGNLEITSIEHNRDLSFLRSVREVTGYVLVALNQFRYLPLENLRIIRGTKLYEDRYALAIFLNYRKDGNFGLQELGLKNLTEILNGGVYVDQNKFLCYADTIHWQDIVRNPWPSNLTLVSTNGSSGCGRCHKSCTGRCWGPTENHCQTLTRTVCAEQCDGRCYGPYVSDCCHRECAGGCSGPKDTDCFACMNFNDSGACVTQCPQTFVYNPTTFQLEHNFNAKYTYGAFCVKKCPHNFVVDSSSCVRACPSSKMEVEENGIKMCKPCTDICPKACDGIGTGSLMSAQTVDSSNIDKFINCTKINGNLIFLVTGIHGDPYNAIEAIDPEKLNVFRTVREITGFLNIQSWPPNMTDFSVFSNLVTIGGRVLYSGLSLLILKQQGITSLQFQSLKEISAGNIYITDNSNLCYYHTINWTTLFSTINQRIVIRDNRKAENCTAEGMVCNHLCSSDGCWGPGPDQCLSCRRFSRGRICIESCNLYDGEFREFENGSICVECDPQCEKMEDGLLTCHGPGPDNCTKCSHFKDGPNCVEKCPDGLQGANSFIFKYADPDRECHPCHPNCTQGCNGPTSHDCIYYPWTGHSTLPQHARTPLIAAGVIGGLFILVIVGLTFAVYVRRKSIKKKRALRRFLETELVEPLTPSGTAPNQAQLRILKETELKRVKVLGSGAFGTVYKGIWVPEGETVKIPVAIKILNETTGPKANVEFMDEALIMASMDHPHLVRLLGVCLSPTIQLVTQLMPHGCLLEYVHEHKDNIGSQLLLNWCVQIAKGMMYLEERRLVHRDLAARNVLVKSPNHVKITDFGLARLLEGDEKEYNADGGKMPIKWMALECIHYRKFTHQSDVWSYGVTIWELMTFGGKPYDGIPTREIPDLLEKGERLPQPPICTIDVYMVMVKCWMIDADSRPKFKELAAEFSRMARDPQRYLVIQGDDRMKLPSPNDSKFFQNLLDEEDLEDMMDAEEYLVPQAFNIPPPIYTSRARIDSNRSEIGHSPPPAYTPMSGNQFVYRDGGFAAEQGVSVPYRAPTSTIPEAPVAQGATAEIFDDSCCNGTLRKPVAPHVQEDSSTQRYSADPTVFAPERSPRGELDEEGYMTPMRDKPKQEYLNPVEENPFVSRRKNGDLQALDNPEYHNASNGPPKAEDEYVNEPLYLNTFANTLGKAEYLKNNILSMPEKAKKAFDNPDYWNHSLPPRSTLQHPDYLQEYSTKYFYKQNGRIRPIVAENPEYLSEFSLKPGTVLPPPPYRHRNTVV
Epidermal growth factor receptor, sequence (P00533 whole entry): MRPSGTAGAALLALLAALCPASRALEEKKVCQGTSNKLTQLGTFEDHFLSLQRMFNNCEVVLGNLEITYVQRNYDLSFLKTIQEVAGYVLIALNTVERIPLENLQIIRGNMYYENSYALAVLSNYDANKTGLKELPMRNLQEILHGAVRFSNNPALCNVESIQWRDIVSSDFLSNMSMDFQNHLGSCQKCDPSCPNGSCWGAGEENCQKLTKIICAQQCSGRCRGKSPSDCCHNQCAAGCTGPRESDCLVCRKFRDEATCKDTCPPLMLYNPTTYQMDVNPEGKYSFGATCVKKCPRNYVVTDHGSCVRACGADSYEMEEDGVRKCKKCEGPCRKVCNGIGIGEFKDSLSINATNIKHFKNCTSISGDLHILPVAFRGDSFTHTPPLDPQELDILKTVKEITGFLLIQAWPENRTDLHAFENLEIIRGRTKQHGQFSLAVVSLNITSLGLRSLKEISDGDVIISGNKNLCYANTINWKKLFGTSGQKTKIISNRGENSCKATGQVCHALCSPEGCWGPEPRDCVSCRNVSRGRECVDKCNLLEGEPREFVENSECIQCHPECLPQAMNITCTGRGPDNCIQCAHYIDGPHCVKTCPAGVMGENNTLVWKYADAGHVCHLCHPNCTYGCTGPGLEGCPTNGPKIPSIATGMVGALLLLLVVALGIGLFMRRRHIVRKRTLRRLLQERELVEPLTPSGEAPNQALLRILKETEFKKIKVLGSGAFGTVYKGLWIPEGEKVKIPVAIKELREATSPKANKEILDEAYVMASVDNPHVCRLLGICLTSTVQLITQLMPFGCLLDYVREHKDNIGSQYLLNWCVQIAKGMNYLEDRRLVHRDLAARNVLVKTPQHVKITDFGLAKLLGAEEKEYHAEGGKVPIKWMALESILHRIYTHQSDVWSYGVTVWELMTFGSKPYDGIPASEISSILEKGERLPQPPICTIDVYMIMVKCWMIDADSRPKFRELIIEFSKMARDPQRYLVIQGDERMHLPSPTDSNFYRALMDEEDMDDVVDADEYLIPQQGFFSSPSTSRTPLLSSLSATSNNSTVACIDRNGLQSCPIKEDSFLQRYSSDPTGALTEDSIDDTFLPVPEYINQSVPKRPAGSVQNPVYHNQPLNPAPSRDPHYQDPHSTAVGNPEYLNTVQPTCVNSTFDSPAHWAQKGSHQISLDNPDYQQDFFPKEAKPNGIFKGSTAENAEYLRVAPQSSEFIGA
T1 sequence (P04626 whole entry): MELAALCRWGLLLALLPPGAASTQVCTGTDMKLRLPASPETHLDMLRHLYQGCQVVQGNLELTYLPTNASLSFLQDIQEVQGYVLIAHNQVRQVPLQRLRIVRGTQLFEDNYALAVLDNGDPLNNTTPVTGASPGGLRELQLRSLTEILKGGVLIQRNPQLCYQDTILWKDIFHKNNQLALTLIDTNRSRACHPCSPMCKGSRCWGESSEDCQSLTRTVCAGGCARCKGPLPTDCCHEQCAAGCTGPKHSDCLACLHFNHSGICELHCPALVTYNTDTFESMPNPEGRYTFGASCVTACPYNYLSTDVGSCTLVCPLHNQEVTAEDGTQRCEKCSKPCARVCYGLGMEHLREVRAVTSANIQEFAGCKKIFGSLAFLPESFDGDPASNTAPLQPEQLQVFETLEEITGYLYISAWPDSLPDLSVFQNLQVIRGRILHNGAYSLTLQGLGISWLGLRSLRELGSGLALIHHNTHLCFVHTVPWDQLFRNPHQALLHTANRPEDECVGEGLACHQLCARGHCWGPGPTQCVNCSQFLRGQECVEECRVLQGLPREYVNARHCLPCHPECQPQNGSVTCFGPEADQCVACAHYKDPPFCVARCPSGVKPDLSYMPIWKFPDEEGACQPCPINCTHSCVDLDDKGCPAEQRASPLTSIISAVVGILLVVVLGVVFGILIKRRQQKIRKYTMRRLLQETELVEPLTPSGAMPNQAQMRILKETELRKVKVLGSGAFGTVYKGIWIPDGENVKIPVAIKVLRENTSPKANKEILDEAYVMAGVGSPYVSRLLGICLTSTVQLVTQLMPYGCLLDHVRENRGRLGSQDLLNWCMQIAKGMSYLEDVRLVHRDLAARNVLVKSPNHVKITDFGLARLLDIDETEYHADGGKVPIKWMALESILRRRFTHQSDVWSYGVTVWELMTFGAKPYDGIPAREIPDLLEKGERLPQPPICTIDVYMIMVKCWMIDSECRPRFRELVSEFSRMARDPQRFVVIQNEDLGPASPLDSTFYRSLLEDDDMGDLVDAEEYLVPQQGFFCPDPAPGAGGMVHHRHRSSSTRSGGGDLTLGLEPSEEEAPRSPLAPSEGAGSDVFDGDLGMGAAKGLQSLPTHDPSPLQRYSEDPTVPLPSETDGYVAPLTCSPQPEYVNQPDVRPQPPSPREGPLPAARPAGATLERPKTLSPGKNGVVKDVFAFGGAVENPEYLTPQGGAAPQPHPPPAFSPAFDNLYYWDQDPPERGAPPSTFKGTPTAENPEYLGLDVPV

As for `O=C(O)Cc1ccccc1Nc1c(Cl)cccc1Cl` [DICLOFENAC], the amount remaining at 1 h, 100 µM in the series “in vitro [1]” was 102%; in “in vitro [2]”, 50.2%. Besides, the CLint scaled at 1 h, 100 µM in “in vitro [3]” came to 91.5 mL/min/kg. In “in vitro [4]”, this molecule came in with a microsomal CLint at 1 h, 100 µM of 23.1 µL/min/mg. In the series “in vitro [5]”, this molecule displayed a half-life at 1 h, 100 µM of 1 h.

Turning to `C[C@]12CC[C@H]3[C@@H](CCC4=CC(=O)CC[C@@]43C)[C@@H]1CC[C@@H]2O` [TESTOSTERONE], the intrinsic clearance (CLint scaled) at 1 h, 100 µM in “in vitro [3]” came to 1110 mL/min/kg. The molecule further registered a microsomal CLint at 1 h, 100 µM in the series “in vitro [4]” of 279 µL/min/mg.

In the case of `Cc1cccc(Oc2ccc(Nc3ncnc4ccc(NC(=O)CNCCO)cc34)cc2Cl)c1`, the IC50 worked out at 7830 nM in the series with MDA-MB-231, 10800 nM in the series on MCF7 [6], 132 nM with BT-474 and 304 nM with AU565. The activity at 10 µM in series [7] is 86%; in series [8] it was -99%; in [9], -93%; in [10], -78%.

As to `O=C(CN1CCOCC1)Nc1ccc2ncnc(Nc3ccc(OCc4cccc(F)c4)c(Cl)c3)c2c1`, the IC50 with MDA-MB-231 stood at 11600 nM; in the series on MCF7 [6] it was 7970 nM; in the series on BT-474, 117 nM; in the series with AU565, 130 nM. The activity at 10 µM in [7] was 55%; in series [8], -97%; in series [9], -92%; in [10], -81%.

With `O=C(CNCCO)Nc1ccc2ncnc(Nc3ccc(OCc4cccc(F)c4)c(Cl)c3)c2c1`, the IC50 in the series with MDA-MB-231 stood at 8780 nM; with MCF7 [6], 8620 nM; in the series with BT-474, 240 nM; with AU565 it was 220 nM; in series [12], 10.4 nM. Further, the activity at 10 µM in [7] is 54%; in series [8] it was -98%; in [9] it was -93%; in series [10], -78%. Moreover, the inhibition in [11] came to 3%.

In the case of `CN1CCN(CCCOc2ccc3ncnc(Nc4ccc(Oc5cccc(C(F)(F)F)c5)c(Cl)c4)c3c2)CC1`, the Activity entry in [13] was “<=78.7%”; in series [15], 18%; in the series on MCF7 [16], 18%; with MDA-MB-468 [17], 18%; in [19], 1.3%; in [20] it was 11.85%. For the same molecule, the inhibition of growth at 10 µM is at most 78.7% in [14] and 18.8% in the series on MDA-MB-468 [18]. In addition, the IC50 worked out at 1060 nM in the series on MDA-MB-231, 1680 nM in the series with MCF7 [6], 200 nM with BT-474 and 447 nM in the series on AU565. Besides, the activity at 10 µM is 115% in series [7], -99% in series [8], -92% in series [9] and -78% in series [10]. Further, the “Ratio IC50” value with MCF7 [21] is “<=20”.

As usually defined, the CLint scaled is the rate of metabolic loss divided by the concentration. A lower CLint scaled goes with greater metabolic stability. For orientation: microsomal CLint means the rate of metabolic loss divided by the concentration. Broadly, the half-life is the time in which the quantity being followed falls by half. Low readings indicate rapid decline, high ones slow decline. In general, IC50 refers to the concentration that gives 50% inhibition. One may read the inhibition as the drop in the measured response relative to a control, in per cent.
